Data as given in patent publication US9889183B2, “PKC activators and anticoagulant in regimen for treating stroke” (BLANCHETTE ROCKEFELLER NEUROSCIENCES INSTITUTE, priority 2010, dated 2018).

How the values were obtained:
[1] = target: T1, PKCδ (Homo sapiens, UniProt Q05655); experiment: PKC isozyme specificity, PKCδ; type: biochemical; conditions: about 1-100 μM; data not shown
T1 construct: purchased Calbiochem
Description: (§1) Protein kinase C assay. Rat hippocampal cells were cultured and scraped in 0.2 ml homogenization buffer (20 mM Tris-HCl, pH 7.4, 50 mM NaF, 1 μg/ml leupeptin, and 0.1 mM PMSF) and homogenized by sonication a Marsonix microprobe sonicator (5 sec, 10 W). To measure PKC, 10 μl of cell homogenate or purified PKC isozyme (purchased from Calbiochem) was incubated for 15 min at 37° C. in the presence of 10 μM histones, 4.89 mM CaCl2, 1.2 μg/μl phosphatidyl-L-serine, 0.18 μg/μl 1,2-dioctanoyl-sn-glycerol, 10 mM MgCl2, 20 mM HEPES (pH 7.4), 0.8 mM EDTA, 4 mM EGTA, 4% glycerol, 8 μg/ml aprotinin, 8 μg/ml leupeptin, and 2 mM benzamidine. […][^γ32P]ATP was added and ^32P-phosphoprotein formation was measured by adsorption onto phosphocellulose as described previously. Nelson and Alkon, J. Neurochemistry (1995), vol. 65, pp. 2350-2357. For measurements of activation by BR-101 (DCP-LA) and similar compounds. PKC activity was measured in the absence of diacylglycerol and phosphatidylserine and PKC δ, ε, η, and μ were measured in the absence of added EGTA and CaCl2, as described by Kanno et al. (J. Lipid Res. 2006, vol. 47, pp. 1146-1150). […]
(§2) To determine their PKC isozyme specificity, fatty acid derivatives were preincubated with purified PKC for five minutes and the PKC activity was measured radiometrically.

[2] = target: T2, PKCγ (Homo sapiens, UniProt P05129); experiment: PKC isozyme specificity, PKCγ; type: biochemical; conditions: 50-100 μM; data not shown
T2 construct: purchased Calbiochem
Description: as §1, §2

[3] = system: other PKC isoforms; experiment: PKC isozyme specificity, other PKC isoforms; type: biochemical; conditions: data not shown
Description: as §1, §2

[4] = target: T3, PKCε (Homo sapiens, UniProt Q02156); conditions: cited from earlier work
T3 construct: purchased Calbiochem
T3 sequence (Q02156 1-737): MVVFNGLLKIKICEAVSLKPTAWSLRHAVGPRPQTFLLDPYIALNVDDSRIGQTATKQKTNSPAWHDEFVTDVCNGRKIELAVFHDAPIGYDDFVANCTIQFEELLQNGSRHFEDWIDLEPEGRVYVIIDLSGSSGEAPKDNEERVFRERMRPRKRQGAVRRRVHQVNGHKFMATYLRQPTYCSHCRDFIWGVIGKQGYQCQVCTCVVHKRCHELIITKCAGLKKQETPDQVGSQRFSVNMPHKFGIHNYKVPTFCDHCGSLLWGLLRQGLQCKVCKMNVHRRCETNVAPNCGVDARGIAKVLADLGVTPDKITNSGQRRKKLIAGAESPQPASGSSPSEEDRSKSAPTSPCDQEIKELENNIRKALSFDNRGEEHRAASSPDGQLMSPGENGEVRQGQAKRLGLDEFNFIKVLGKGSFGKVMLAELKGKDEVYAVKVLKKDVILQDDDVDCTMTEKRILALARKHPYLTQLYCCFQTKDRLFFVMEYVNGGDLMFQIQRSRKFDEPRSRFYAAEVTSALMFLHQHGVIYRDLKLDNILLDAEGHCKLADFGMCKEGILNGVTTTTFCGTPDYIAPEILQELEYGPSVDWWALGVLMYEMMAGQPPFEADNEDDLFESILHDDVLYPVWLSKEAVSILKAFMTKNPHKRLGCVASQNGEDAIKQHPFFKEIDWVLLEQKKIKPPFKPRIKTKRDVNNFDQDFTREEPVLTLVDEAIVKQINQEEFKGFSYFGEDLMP

[5] = system: PKC in H19-7/IGF-IR cells; experiment: PKC activity over time in rat H19-7/IGF-IR hippocampal cells; type: cell-based
Description: Cell culture. Rat hippocampal H19-7/IGF-IR cells (ATCC, Manassas, Va.) were plated onto poly-L-lysine coated plates and grown at 35° C. in DMEM/10% FCS for several days until about 50% coverage was obtained. The cells were then induced to differentiate into a neuronal phenotype by replacing the medium with 5 ml N2 medium containing 10 ng/ml basic fibroblast growth factor at 39° C. and grown in T-75 flasks at 37° C. Human SH-SY5Y neuroblastoma cells (ATCC) were cultured in 45% F12K/45% MEM/10% FCS. Mouse N2A neuroblastoma cells were cultured in DMEM/10% FCS without glutamine. Rat hippocampal neurons from 18-day-old embryonic Sprague Dawley rat brains were plated on 12- or 96-well plates coated with poly-D-lysine (Sigma-Aldrich, St. Louis, Mo.) in B-27 neurobasal medium containing 0.5 mM glutamine and 25 μM glutamate (Invitrogen, Carlsbad, Calif.) and cultured for three days in the medium without glutamate. The neuronal cells were grown under 5% CO2 in an incubator maintained at 37° C. for 14 days.
Protein kinase C assay. Rat hippocampal cells were cultured and scraped in 0.2 ml homogenization buffer (20 mM Tris-HCl, pH 7.4, 50 mM NaF, 1 μg/ml leupeptin, and 0.1 mM PMSF) and homogenized by sonication a Marsonix microprobe sonicator (5 sec, 10 W). To measure PKC, 10 μl of cell homogenate or purified PKC isozyme (purchased from Calbiochem) was incubated for 15 min at 37° C. in the presence of 10 μM histones, 4.89 mM CaCl2, 1.2 μg/μl phosphatidyl-L-serine, 0.18 μg/μl 1,2-dioctanoyl-sn-glycerol, 10 mM MgCl2, 20 mM HEPES (pH 7.4), 0.8 mM EDTA, 4 mM EGTA, 4% glycerol, 8 μg/ml aprotinin, 8 μg/ml leupeptin, and 2 mM benzamidine. […][^γ32P]ATP was added and ^32P-phosphoprotein formation was measured by adsorption onto phosphocellulose as described previously. Nelson and Alkon, J. Neurochemistry (1995), vol. 65, pp. 2350-2357. For measurements of activation by BR-101 (DCP-LA) and similar compounds. PKC activity was measured in the absence of diacylglycerol and phosphatidylserine and PKC δ, ε, η, and μ were measured in the absence of added EGTA and CaCl2, as described by Kanno et al. (J. Lipid Res. 2006, vol. 47, pp. 1146-1150). Low concentrations of Ca^2+ are used because high Ca^2+ interacts with the PKC phosphatidylserine binding site and prevents activation. For measurements of bryostatin activation, 1,2-diacylglycerol was omitted unless otherwise stated.
PKC activators that bind to the diacylglycerol binding site, including bryostatin, gnidimacrin, and phorbol esters, produce a transient activation of PKC activity, followed by a prolonged downregulation. Nelson et al., Trends in Biochem. Sci. (2009), vol. 34, pp. 136-145. This was confirmed in cultured rat hippocampal cells. Incubation of rat H19-7/IGF-IR cells with (0.04 nM and 0.2 nM) bryostatin produced a 2-fold activation that lasted 30 min, followed by a 20% downregulation that returned to baseline by 24 hours (data not shown). […] This sustained activation was only observed in primary neurons.

[6] = system: ischemic stroke (middle cerebral artery occlusion) in rats; experiment: Focal ischemia (MCAO) model of stroke; type: in vivo, rat
Description: A transient animal model of focal ischemia was used for these experiments. The middle cerebral artery (MCA) was surgically dissected and occluded in anesthetized rats by ligature, followed by reperfusion after a defined period (about 2 hours). Animal models transient ischemia via occlusion of the MCA (MCAO) are well-known and described in, e.g., Sicard and Fisher, Exp. & Transl. Stroke Med. (2009), vol. 1, pp. 1-7.

[7] = system: α-secretase; conditions: 10 pM; human fibroblasts; cited from earlier work
[8] = rTPA at 2 hours followed 6 hours later with bryostatin-1, vs rTPA alone

T1 sequence (Q05655 whole entry): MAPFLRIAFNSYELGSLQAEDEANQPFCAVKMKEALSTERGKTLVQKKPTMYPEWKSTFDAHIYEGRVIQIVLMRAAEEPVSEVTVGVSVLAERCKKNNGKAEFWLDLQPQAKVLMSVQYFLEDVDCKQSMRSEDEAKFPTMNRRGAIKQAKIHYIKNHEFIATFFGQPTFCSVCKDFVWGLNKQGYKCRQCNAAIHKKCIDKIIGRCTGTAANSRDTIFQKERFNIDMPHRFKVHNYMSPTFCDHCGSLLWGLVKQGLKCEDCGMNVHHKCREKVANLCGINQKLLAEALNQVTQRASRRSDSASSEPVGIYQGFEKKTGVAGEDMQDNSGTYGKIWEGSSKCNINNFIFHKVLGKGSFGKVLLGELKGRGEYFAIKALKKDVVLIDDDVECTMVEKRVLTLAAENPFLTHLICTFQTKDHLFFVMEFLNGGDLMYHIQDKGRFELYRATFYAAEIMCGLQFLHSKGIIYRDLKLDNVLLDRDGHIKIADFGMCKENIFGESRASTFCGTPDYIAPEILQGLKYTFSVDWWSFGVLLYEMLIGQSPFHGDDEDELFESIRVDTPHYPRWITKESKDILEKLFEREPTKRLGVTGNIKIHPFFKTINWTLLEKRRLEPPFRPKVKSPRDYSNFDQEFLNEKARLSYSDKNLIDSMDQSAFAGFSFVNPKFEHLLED

SMILES | effect on PKCδ [1] | effect on PKCγ [2] | effects on the other PKC isoforms [3] | concentration of maximal effect, selective PKCε activation [4] [nM] | PKC downregulation following activation ([5]; 0.04 nM and 0.2 nM) [%] | duration of PKC activation ([5]; 0.04 nM and 0.2 nM) [min] | time of return of PKC to baseline ([5]; 0.04 nM and 0.2 nM) [h] | PKC activation ([5]; 0.04 nM and 0.2 nM, H19-7/IGF-IR cells) [fold] | PKC activity at 8 hours (downregulation) ([5]; treated cells, 8 hours, data not shown) | brain edema ([6]; bryostatin-1 2 hours after stroke, rTPA 6 hours later, vs rTPA alone) | reduction of assayed hemoglobin in the cortex and striatum ([6]; bryostatin-1 2 hours after stroke, rTPA 6 hours later, vs rTPA at 6 hours alone) [%] | mortality 24 hours later ([6]; rTPA 6 hours after the stroke, followed 2 hours later with bryostatin-1, rats) [%] | uptake of Evans Blue dye in ipsilateral and contralateral cortices (BBB permeability) [6, 8] | uptake of NaF in ipsilateral and contralateral cortices [6, 8] | increase of initial rate of α-secretase activity [7] [fold]
CCCCCC1CC1CC1CC1CCCCCCCC(=O)O (stereo not drawn) [BR-101, 2-[(2-pentylcyclopropyl)methyl]cyclopropaneoctanoic acid] | partially inhibited | activated | relatively small effects | 100 |  |  |  |  |  |  |  |  |  |  | 
CCC/C=C/C=C/C(=O)O[C@H]1/C(=C/C(=O)OC)C[C@H]2C[C@H]([C@@H](C)O)OC(=O)C[C@H](O)C[C@@H]3C[C@H](OC(C)=O)C(C)(C)[C@](O)(C[C@@H]4C/C(=C/C(=O)OC)C[C@H](/C=C/C(C)(C)[C@]1(O)O2)O4)O3 [Bryostatin-1, bryostatin-1] |  |  |  |  | 20 | 30 | ≤ 24 | 2 | at or near the baseline | significantly reduced | 50 | 0 | significantly reduced | reduced | 16
